In paper PMC2745609 (Journal of medicinal chemistry, 2009):

Tests used:
HIV-1 protease = HIV-1 protease (Human immunodeficiency virus type 1 group M subtype B, UniProt P04585); assay: HIV-1 protease enzyme inhibition; assay type: biochemical; conditions: for fold improvement of enzyme Ki over 17a: relative to 17a
HIV-1lai = assay: Antiviral activity in MT-2 human T-lymphoid cells exposed to HIV-1LAI, MTT assay; assay type: cell-based; conditions: for IC50: Human immunodeficiency virus 1, MT2, in Homo sapiens
[1] = system: HIV-1ERS104pre (wild-type); assay: Anti-HIV activity in PHA-PBM, p24 Gag production, wild-type clinical isolate; assay type: cell-based; conditions: Human immunodeficiency virus 1, PBMC, read-out: IC50 against HIV-1ERS104pre

Compound: COc1ccc(S(=O)(=O)N(C[C@@H]2CCC(=O)N2)C[C@@H](O)[C@H](Cc2ccccc2)NC(=O)O[C@H]2CO[C@H]3OCC[C@H]32)cc1 [Inhibitor 17a, (3R,3aS,6aR)-Hexahydrofuro[2,3-b]furan-3-yl(2S,3R)-3-hydroxy-4-(4-methoxy-N-(((S)-5-oxopyrrolidin-2-yl)methyl)phenylsulfonamido)-1-phenylbutan-2-yl-carbamate]
- Ki (HIV-1 protease; Ki (nM), enzyme inhibitory potency): 1 nM

Compound: COc1ccc(S(=O)(=O)N(C[C@@H]2CCC(=O)N2)C[C@@H](O)[C@H](Cc2ccccc2)NC(=O)O[C@@H]2C[C@@H]3CCO[C@@H]3C2)cc1 [Inhibitor 17b, (3aS,5R,6aR)-Hexahydro-2H–cyclopenta[b]furan-5-yl-(2S,3R)-3-hydroxy-4-(4-methoxy-N-(((S)-5-oxopyrrolidin-2-yl)methyl)phenylsulfonamido)-1-phenylbutan-2-ylcarbamate]
- fold improvement of enzyme Ki over 17a (HIV-1 protease): 3 fold

Compound: Nc1ccc(S(=O)(=O)N(C[C@@H]2CCC(=O)N2)C[C@@H](O)[C@H](Cc2ccccc2)NC(=O)O[C@H]2CO[C@H]3OCC[C@H]32)cc1 [Inhibitor 18a, (3R,3aS,6aR)-Hexahydrofuro[2,3-b]furan-3-yl(2S,3R)-4-(4-amino-N-(((S)-5-oxopyrrolidin-2-yl)methyl)phenylsulfonamido)-3-hydroxy-1-phenylbutan-2-ylcarbamate]
- IC50 (HIV-1lai): > 1000 nM

Compound: COc1ccc(S(=O)(=O)N(C[C@H]2CCC(=O)N2)C[C@@H](O)[C@H](Cc2ccccc2)NC(=O)O[C@H]2CO[C@H]3OCC[C@H]32)cc1 [Inhibitor 19a, (3R,3aS,6aR)-Hexahydrofuro[2,3-b]furan-3-yl(2S,3R)-3-hydroxy-4-(4-methoxy-N-(((R)-5-oxopyrrolidin-2-yl)methyl)phenylsulfonamido)-1-phenylbutan-2ylcarbamate]
- fold improvement of enzyme Ki over 17a (HIV-1 protease): 10 fold

Compound: COc1ccc(S(=O)(=O)N(C[C@H]2CCC(=O)N2)C[C@@H](O)[C@H](Cc2ccccc2)NC(=O)O[C@@H]2C[C@@H]3CCO[C@@H]3C2)cc1 [Inhibitor 19b, (3aS,5R,6aR)-Hexahydro-2H–cyclopenta[b]furan-5-yl-(2S,3R)-3-hydroxy-4-(4-methoxy-N-(((R)-5-oxopyrrolidin-2-yl)methyl)phenylsulfonamido)-1-phenylbutan-2-ylcarbamate]
- IC50 [1]: 28 nM
- fold improvement in antiviral activity relative to 17b (HIV-1lai; relative to epimeric (S)-pyrrolidinone derivative 17b): 10 fold

Compound: Nc1ccc(S(=O)(=O)N(C[C@@H]2COC(=O)N2)C[C@@H](O)[C@H](Cc2ccccc2)NC(=O)O[C@H]2CO[C@H]3OCC[C@H]32)cc1 [Inhibitor 30, (3R,3aS,6aR)-hexahydrofuro[2,3-b]furan-3-yl-(2S,3R)-4-(4-amino-N-(((R)-2-oxooxazolidin-4-yl)methyl)phenylsulfonamido)-3-hydroxy-1-phenylbutan-2-ylcarbamate]
- IC50 (HIV-1lai): > 1000 nM

Compound: CC(C)CN(C[C@@H](O)[C@H](Cc1ccccc1)NC(=O)O[C@H]1CCOC1)S(=O)(=O)c1ccc(N)cc1 [amprenavir, reference compound]
- IC50 [1]: 25 nM
- IC50 (HIV-1lai): 30 nM

Compound: CC(C)(C)NC(=O)[C@@H]1CN(Cc2cccnc2)CCN1C[C@@H](O)C[C@@H](Cc1ccccc1)C(=O)N[C@H]1c2ccccc2C[C@H]1O [indinavir, reference compound]
- IC50 [1]: 28 nM
- IC50 (HIV-1lai): 30 nM

Compound: CC(C)(C)NC(=O)[C@@H]1C[C@@H]2CCCC[C@@H]2CN1C[C@@H](O)[C@H](Cc1ccccc1)NC(=O)[C@H](CC(N)=O)NC(=O)c1ccc2ccccc2n1 [saquinavir, reference compound]
- IC50 (HIV-1lai): 15 nM
